Literature values as cited in PubChem BioAssay AID1259409 (Chemical Carcinogenesis Research Information System (CCRIS), 2018).

Tested on: rodent chemically induced tumor inhibition, incidence and multiplicity
Assay: CCRIS tumor inhibitor studies

C/C(=C\c1ccc(C(=O)O)cc1)c1ccc2c(c1)SCCC2(C)C
tumour outcome (control, treated, inhibition, significance) (Carcinogen: 7,12-DIMETHYLBENZ[A]ANTHRACENE, 57-97-6, Dose [Inhibitor]: 1.7 NMOL IN 0.2 ML ACETONE 1 HR PRIOR TO EACH PROMOTER DOSE FOR 12 WK (STUDY DURATION: 14 WK), Route [Inhibitor]: DERMAL, Species: MOUSE, Strain/Sex: SENCAR/FEMALE, Target Tissue: Type of Lesion: SKIN: PAPILLOMA, Dose [Carcinogen]: 200 NMOL IN 0.2 ML ACETONE ONCE, Promoter: 12-O-TETRADECANOYLPHORBOL-13-ACETATE, 16561-29-8): 100%, 70%, 30%, not calculated | tumour outcome (control, treated, inhibition, significance) (Carcinogen: 7,12-DIMETHYLBENZ[A]ANTHRACENE, 57-97-6, Dose [Inhibitor]: 1.7 NMOL IN 0.2 ML ACETONE 1 HR PRIOR TO EACH PROMOTER DOSE FOR 20 WK (STUDY DURATION: 22 WK), Route [Inhibitor]: DERMAL, Species: MOUSE, Strain/Sex: CD-1/FEMALE, Target Tissue: Type of Lesion: SKIN: PAPILLOMA, Dose [Carcinogen]: 200 NMOL IN 0.2 ML ACETONE ONCE, Promoter: 12-O-TETRADECANOYLPHORBOL-13-ACETATE, 16561-29-8): 94%, 67%, 29%, not calculated | tumour outcome (control, treated, inhibition, significance) (Carcinogen: 7,12-DIMETHYLBENZ[A]ANTHRACENE, 57-97-6, Dose [Inhibitor]: 17 NMOL IN 0.2 ML ACETONE 1 HR PRIOR TO EACH PROMOTER DOSE FOR 12 WK (STUDY DURATION: 14 WK), Route [Inhibitor]: DERMAL, Species: MOUSE, Strain/Sex: SENCAR/FEMALE, Target Tissue: Type of Lesion: SKIN: PAPILLOMA, Dose [Carcinogen]: 200 NMOL IN 0.2 ML ACETONE ONCE, Promoter: 12-O-TETRADECANOYLPHORBOL-13-ACETATE, 16561-29-8): 100%, 72%, 28%, not calculated | tumour outcome (control, treated, inhibition, significance) (Carcinogen: 7,12-DIMETHYLBENZ[A]ANTHRACENE, 57-97-6, Dose [Inhibitor]: 17 NMOL IN 0.2 ML ACETONE 1 HR PRIOR TO EACH PROMOTER DOSE FOR 20 WK (STUDY DURATION: 22 WK), Route [Inhibitor]: DERMAL, Species: MOUSE, Strain/Sex: CD-1/FEMALE, Target Tissue: Type of Lesion: SKIN: PAPILLOMA, Dose [Carcinogen]: 200 NMOL IN 0.2 ML ACETONE ONCE, Promoter: 12-O-TETRADECANOYLPHORBOL-13-ACETATE, 16561-29-8): 94%, 33%, 65%, not calculated | tumour outcome (control, treated, inhibition, significance) (Carcinogen: 7,12-DIMETHYLBENZ[A]ANTHRACENE, 57-97-6, Dose [Inhibitor]: 170 NMOL IN 0.2 ML ACETONE 1 HR PRIOR TO EACH PROMOTER DOSE FOR 12 WK (STUDY DURATION: 14 WK), Route [Inhibitor]: DERMAL, Species: MOUSE, Strain/Sex: SENCAR/FEMALE, Target Tissue: Type of Lesion: SKIN: PAPILLOMA, Dose [Carcinogen]: 200 NMOL IN 0.2 ML ACETONE ONCE, Promoter: 12-O-TETRADECANOYLPHORBOL-13-ACETATE, 16561-29-8): 100%, 0%, 100%, not calculated | tumour outcome (control, treated, inhibition, significance) (Carcinogen: 7,12-DIMETHYLBENZ[A]ANTHRACENE, 57-97-6, Dose [Inhibitor]: 170 NMOL IN 0.2 ML ACETONE 1 HR PRIOR TO EACH PROMOTER DOSE FOR 20 WK (STUDY DURATION: 22 WK), Route [Inhibitor]: DERMAL, Species: MOUSE, Strain/Sex: CD-1/FEMALE, Target Tissue: Type of Lesion: SKIN: PAPILLOMA, Dose [Carcinogen]: 200 NMOL IN 0.2 ML ACETONE ONCE, Promoter: 12-O-TETRADECANOYLPHORBOL-13-ACETATE, 16561-29-8): 94%, 0%, 100%, not calculated

CCCC/C=C\C=C/O[C@@H](CC)CCC(CCC)CCCCCCCC(=O)O[C@]1(O)[C@]2(O)O[C@H](CO[C@H]3O[C@H](CO)[C@H](O)[C@H](O)[C@H]3O)[C@H](O)[C@@]1(O)O2 (some centres undefined)
tumour outcome (control, treated, inhibition, significance) (Carcinogen: 7,12-DIMETHYLBENZ[A]ANTHRACENE, 57-97-6, Dose [Inhibitor]: 0, 85 NMOL IN 0.1 ML ACETONE 2/WK FOR 20 WK APPLIED 1 HR PRIOR TO EACH PROMOTER DOSE (STUDY DURATION: 21 WK), Route [Inhibitor]: DERMAL, Species: MOUSE, Strain/Sex: ICR/FEMALE, Target Tissue: Type of Lesion: SKIN: PAPILLOMA, Dose [Carcinogen]: 390 NMOL IN 0.1 ML ACETONE ONCE, Promoter: 12-O-TETRADECANOYLPHORBOL-13-ACETATE, 16561-29-8): 100%, 68%, 32%, p<0.05

C=C(C)[C@@H]1CC[C@]2(C(=O)O)CC[C@]3(C)[C@H](CC[C@@H]4[C@@]5(C)CC[C@H](O)C(C)(C)[C@@H]5CC[C@]43C)[C@@H]12
tumour outcome (control, treated, inhibition, significance) (Carcinogen: 7,12-DIMETHYLBENZ[A]ANTHRACENE, 57-97-6, Dose [Inhibitor]: 0, 5 UMOL 2/WK BEGINNING 1 WK POST CARCINOGEN TREATMENT AND CONTINUING FOR 18 WK (STUDY DURATION: 19 WK), Route [Inhibitor]: DERMAL, Species: MOUSE, Strain/Sex: ICR/FEMALE, Target Tissue: Type of Lesion: SKIN: PAPILLOMA, Dose [Carcinogen]: 50 UG ONCE, Promoter: 12-O-TETRADECANOYLPHORBOL-13-ACETATE, 16561-29-8): 100%, 65%, 35%, not calculated

C#CCN(C)[C@H](C)Cc1ccccc1
tumour outcome (control, treated, inhibition, significance) (Carcinogen: 7,12-DIMETHYLBENZ[A]ANTHRACENE [57-97-6], Dose [Inhibitor]: 0.25 MG/KG BW/D FOR 4 WK BEGINNING 4 WK PRIOR TO FIRST CARCINOGEN DOSE (STUDY DURATION: 32 WK), Route [Inhibitor]: INTRAPERITONEAL, Species: RAT, Strain/Sex: SPRAGUE-DAWLEY/FEMALE, Target Tissue: Type of Lesion: MAMMARY GLAND: TUMOR, Dose [Carcinogen]: 10 MG IN 1 ML PEANUT OIL ONCE (STUDY DURATION: 32 WK), Promoter: NONE): 13/15 (87%), 8/15 (53%), 39%, not significant | tumour outcome (control, treated, inhibition, significance) (Carcinogen: 7,12-DIMETHYLBENZ[A]ANTHRACENE [57-97-6], Dose [Inhibitor]: 0.25 MG/KG BW/D FOR 4 WK BEGINNING 4 WK PRIOR TO FIRST CARCINOGEN DOSE, FOLLOWED BY 0.25 MG/KG BW/D FOR 27 WK POST LAST, Route [Inhibitor]: INTRAPERITONEAL, Species: RAT, Strain/Sex: SPRAGUE-DAWLEY/FEMALE, Target Tissue: Type of Lesion: MAMMARY GLAND: TUMOR, Dose [Carcinogen]: 10 MG IN 1 ML PEANUT OIL ONCE (STUDY DURATION: 32 WK), Promoter: NONE): 13/15 (87%), 9/15 (60%), 31%, not significant | tumour outcome (control, treated, inhibition, significance) (Carcinogen: 7,12-DIMETHYLBENZ[A]ANTHRACENE [57-97-6], Dose [Inhibitor]: 0.25 MG/KG BW/D FOR 27 WK BEGINNING 4 D POST LAST CARCINOGEN DOSE (STUDY DURATION: 32 WK), Route [Inhibitor]: INTRAPERITONEAL, Species: RAT, Strain/Sex: SPRAGUE-DAWLEY/FEMALE, Target Tissue: Type of Lesion: MAMMARY GLAND: TUMOR, Dose [Carcinogen]: 10 MG IN 1 ML PEANUT OIL ONCE (STUDY DURATION: 32 WK), Promoter: NONE): 13/15 (87%), 10/15 (67%), 23%, not significant | tumour outcome (control, treated, inhibition, significance) (Carcinogen: 7,12-DIMETHYLBENZ[A]ANTHRACENE [57-97-6], Dose [Inhibitor]: 2.5 MG/KG BW/D FOR 4 WK BEGINNING 4 WK PRIOR TO FIRST CARCINOGEN DOSE (STUDY DURATION: 32 WK), Route [Inhibitor]: INTRAPERITONEAL, Species: RAT, Strain/Sex: SPRAGUE-DAWLEY/FEMALE, Target Tissue: Type of Lesion: MAMMARY GLAND: TUMOR, Dose [Carcinogen]: 10 MG IN 1 ML PEANUT OIL ONCE (STUDY DURATION: 32 WK), Promoter: NONE): 13/15 (87%), 8/15 (53%), 39%, not significant | tumour outcome (control, treated, inhibition, significance) (Carcinogen: 7,12-DIMETHYLBENZ[A]ANTHRACENE [57-97-6], Dose [Inhibitor]: 2.5 MG/KG BW/D FOR 4 WK BEGINNING 4 WK PRIOR TO FIRST CARCINOGEN DOSE, FOLLOWED BY 2.5 MG/KG BW/D FOR 27 WK POST LAST CA, Route [Inhibitor]: INTRAPERITONEAL, Species: RAT, Strain/Sex: SPRAGUE-DAWLEY/FEMALE, Target Tissue: Type of Lesion: MAMMARY GLAND: TUMOR, Dose [Carcinogen]: 10 MG IN 1 ML PEANUT OIL ONCE (STUDY DURATION: 32 WK), Promoter: NONE): 13/15 (87%), 5/15 (33%), 62%, p<0.0001 | tumour outcome (control, treated, inhibition, significance) (Carcinogen: 7,12-DIMETHYLBENZ[A]ANTHRACENE [57-97-6], Dose [Inhibitor]: 2.5 MG/KG BW/D FOR 27 WK BEGINNING 4 D POST LAST CARCINOGEN DOSE (STUDY DURATION: 32 WK), Route [Inhibitor]: INTRAPERITONEAL, Species: RAT, Strain/Sex: SPRAGUE-DAWLEY/FEMALE, Target Tissue: Type of Lesion: MAMMARY GLAND: TUMOR, Dose [Carcinogen]: 10 MG IN 1 ML PEANUT OIL ONCE (STUDY DURATION: 32 WK), Promoter: NONE): 13/15 (87%), 6/15 (40%), 54%, p<0.0001
